Assay results: patent US20250345391A1, “COMPOSITIONS AND METHODS FOR THE TREATMENT OF SEPSIS” (Children's Hospital Medical Center, priority 2022, published 2025)

Columns and labels:
[1] = system: Myeloperoxidase (MPO) activity in lung, kidneys and liver tissue; experiment: Myeloperoxidase activity (neutrophil infiltration) in organs after CLP sepsis; format: in vivo, Male C57BL/6 mice; conditions: 6 h after CLP; colivelin 100 or 200 μg/kg i.p. at 1 h after CLP; vs vehicle; dose-independent
Description: The investigation conformed to the National Institutes of Health Guide for the Care and Use of Laboratory Animals (Eighth Edition, 2011) and was approved by the Institutional Animal Care and Use Committee of the Cincinnati Children's Hospital Medical Center. Male C57BL/6 mice were obtained from Charles River Laboratories International, Inc. (Wilmington, MA). Mice were used at 3-5 months of age to mimic the equivalent for human ranges from 20-25 years (29). Male mice only were chosen for the experimentation to avoid interference from female hormonal fluctuations in sepsis responses during the estrous cycle. Mice were housed in pathogen-free conditions under a 10-h light/14-h dark cycle with free access to food and water. Mice were anesthetized with 2.0% isoflurane in 50% oxygen and polymicrobial sepsis was induced by cecal ligation and puncture (CLP) (30). After a midline laparotomy, the cecum was exteriorized, ligated and punctured twice with a 23-G needle. The cecum was then returned into the peritoneal cavity and the abdominal incision was closed. After the procedure, mice were randomly assigned to three treatment groups: a vehicle-treated group received distilled water (200 μl/mouse) intraperitoneally (i.p.); a 100 μg colivelin-treated group received the colivelin at 100 μg/kg i.p., and a 200 μg colivelin-treated group received the colivelin at 200 μg/kg i.p. at 1 h after CLP. The intraperitoneal injection was chosen to allow for a rapid uptake and bioavailability of the peptide. All groups of mice also received fluid resuscitation (35 ml/kg normal saline solution subcutaneously) immediately after, at 3 h and 12 h after the CLP procedure. […] Myeloperoxidase (MPO) activity was measured as an indicator of neutrophil infiltration in lung, kidneys and liver tissue. […] The rate of change in absorbance was measured by spectrophotometry at 650 nm. MPO activity was defined as the quantity of enzyme degrading 1 μmol of hydrogen peroxide/min at 37° C. and expressed in units per 100 mg weight of tissue.

lung sections = experiment: Lung histopathology after CLP sepsis; format: in vivo, Male C57BL/6 mice; conditions: 6 h after CLP; colivelin 100 or 200 μg/kg i.p. at 1 h after CLP; vs vehicle
Description: The investigation conformed to the National Institutes of Health Guide for the Care and Use of Laboratory Animals (Eighth Edition, 2011) and was approved by the Institutional Animal Care and Use Committee of the Cincinnati Children's Hospital Medical Center. Male C57BL/6 mice were obtained from Charles River Laboratories International, Inc. (Wilmington, MA). Mice were used at 3-5 months of age to mimic the equivalent for human ranges from 20-25 years (29). Male mice only were chosen for the experimentation to avoid interference from female hormonal fluctuations in sepsis responses during the estrous cycle. Mice were housed in pathogen-free conditions under a 10-h light/14-h dark cycle with free access to food and water. Mice were anesthetized with 2.0% isoflurane in 50% oxygen and polymicrobial sepsis was induced by cecal ligation and puncture (CLP) (30). […]
Paraffin-embedded sections of thoracic aortas and lungs were stained with hematoxylin and eosin for morphological evaluation by three independent observers blinded to the treatment groups. Lung injury was also analyzed by a semiquantitative score based on the following histologic features: alveolar capillary congestion, infiltration of red blood cells and inflammatory cells into the airspace, alveolar wall thickness, and hyaline membrane formation (34). […]

With Colivelin (SALLRSIPAPAGASRLLLLTGEIDLP) the “MPO activity in kidneys” value [1] was “significantly decreased”, the “MPO activity in liver” value [1] was “significantly decreased” and the “MPO activity in lungs” value [1] was “significantly decreased”. For the same substance, the “Microscopic examination of hematoxylin and eosin-stained lung sections” value (lung sections) was “reduced infiltration of inflammatory cells and ameliorated alveolar damage”.
